# Measurements as given in patent US4581359A, “Pharmacological treatments with N-7-substituted derivatives of theophylline” (priority 1984, dated 1986).
# “And” between values parts separate entries of the source, which are not always exact repeats. Equal entries are not always repeated. Where two headings read alike, the source gives them in different places.
# How the values were obtained:
# [1] = Theophylline (aminophylline) intravenous infusion in rabbits: blood concentration, pharmacokinetics, toxicity (Example 1); format: in vivo, female New Zealand White rabbits; settings: for visible toxicity: aminophylline 40 mg/kg over 15 minutes, three rabbits
# Procedure: Analytical grade chemicals were used without further purification. All water was distilled prior to use. 250 mg/10 ml aminophylline injection (Searle Laboratories, Chicago, Ill.) was diluted with an appropriate amount of distilled water for injection. Dyphylline powder (Lemmon Company, Sellersville, Pa.) was dissolved in distilled water for injection.
# A high-pressure liquid chromatographic (HPLC) system consisted of a delivery pump (M-6000A, Waters Associates, Milford, Mass.), sample injection apparatus (Model U6K, Waters Associates, Milford, Mass.), 30-cm reverse phase column (μBondapak C18, Waters Associates, Milford, Mass.), UV detector (Model 440, Waters Associates, Milford, Mass.) with wavelength of 280 nm and a dual pen recorder (Soltec Co., Encino, Calif.) which were used at ambient temperature.
# The internal standard used was β-hydroxypropyl theophylline (Aldrich Chemical Co., Inc., Milwaukee, Wis.) in acetonitrile which was prepared in a 500 ml volumetric flask as a stock solution, and kept tightly sealed except during use throughout the experiment. Internal standard solution (0.4 ml) was added to an equal volume (0.4 ml) of sample to precipitate protein. After centrifuging for 10 minutes, the supernatant was injected into the HPLC. The HPLC operating conditions included a mobile phase composed of acetonitrile (6 percent V/V) in distilled water and a flow rate of 2.0 ml/min.
# A typical semilogrithmic plot of a blood theophylline concentration versus time curves, for each of the three rabbits after a zero-order aminophylline infusion of 40 mg/kg over fifteen minutes, is shown in FIG. 2. The data were fitted to a two-compartment open pharmacokinetic model with first order elimination using PROPHET (PROPHET computer system, FIT FUN routine, Director, Chemical/Biological Information Handling Program, Division of Research Resources, NIH, Bethesda, MD.) The parameters generated from three rabbits were corrected for infusion time, (as described by Gibaldi) and are listed in Table II.
# [2] = Fatal toxicity of theophylline, repeated aminophylline infusion in rabbits (Example 1); format: in vivo, female New Zealand White rabbits; settings: for Vd: rabbit, blood, iv
# Procedure: Aminophylline (40 mg/kg) was infused into four rabbits over fifteen minutes once every two hours until the rabbits died. After the first infusion, blood concentrations of theophylline averaged about 100 mcg/ml in all four rabbits. […] In the second period total xanthine blood concentrations of theophylline averaged about 250 mcg/ml. Three rabbits died in this period with theophylline blood concentrations of about 250 mcg/ml. One rabbit died shortly after the third infusion which gave a blood theophylline concentration of about 400 mcg/ml. […] The last blood sample for each rabbit was collected immediately after the rabbit died.
# [3] = Concomitant dyphylline and aminophylline in two horses: plasma concentration, blood pressure, pulse (Example 3); settings: for Cmax: peak plasma concentration of theophylline
# Procedure: Two horses were administered dyphylline and aminophylline concomitantly.
# The second horse was given a bolus injection of dyphylline (20 mg/kg as 100 mg/ml solution in D5W) over 15 seconds into the jugular vein. Aminophylline infusion (10 mg/kg dissolved in one liter of D5W) was started immediately and administered over 20 minutes.
# [4] = Concurrent administration of theophylline and dyphylline in rabbits: pharmacokinetics and toxicity (Example 1); settings: rabbit, iv, 40 mg/kg
# Procedure: All experiments of this example were performed using female New Zealand White rabbits. These rabbits (2.4-3.6 kg) were housed in a controlled environment and allowed free access to water and food.
# Before dosing with drug the rabbit ear hair was clipped and treated with hair remover lotion (sold under the trademark NAIR, Carter-Wallace, Inc., New York, N.Y.), a catheter (Quick-Cath, 20 Ga, Travenol Laboratories, Inc., Deerfield, Ill.) and sterile intermittent infusion plug were then inserted in the rabbit's ear vein for infusion. […] For each separate administration of theophylline, a suitable amount of aminophylline (40 mg/kg) was dissolved in distilled water to make 10 ml injectable solution which was administered into a rabbit's ear vein as a continuous infusion over a period of 15 minutes.
# Blood samples were collected from an ear vein (in the opposite ear from the infusion) at predetermined time intervals. Before collecting each sample, the rabbit ear was treated topically with xylene to dilate the ear vein for convenient sample collection. Immediately after each blood sample was drawn, 0.4 ml of blood was transfered to the centrifuge tube and 0.4 ml of acetronitrile with appropriate internal standard was added to precipitate the protein and extract drug components. After vortexing well, the blood acetonitrile mixture was centrifuged at 3000×G for ten minutes, and 10 μl of supernatent solution was then injected into the HPLC.
# The post infusion data of theophylline were fitted to a two-compartment open model using the same procedure as described above. Although samples were collected while infusion of dyphylline was continuing, only post infusion data were used for dyphylline pharmacokinetic analysis.
# [5] = Single and combined intravenous methyl xanthines in rabbits: heart rate, deaths, plasma concentrations (Example 6); format: in vivo, female rabbits; settings: for heart rate, individual drug treatment: one rabbit each, normal about 220 bpm
# Procedure: T 40 mg/kg of aminophylline infused at the rate of 0.21 ml/min over 30
# T/D 40 mg/kg of aminophylline infused at the rate of 0.21 ml/min over 30
# T/E 40 mg/kg of aminophylline infused at the rate of 0.21 ml/min over 30
# T/P 40 mg/kg of aminophylline infused at the rate of 0.21 ml/min over 30
# [6] = in vivo
# Procedure: (§1) One horse was administered acetyl promazine thiamyol sodium, quaifensin, and halothane to produce general anesthesia. Dyphylline (20 mg/kg) was given as an intravenous bolus injection in less than 15 seconds and aminophylline (10 mg/kg) was given as an infusion over about 20 minutes. Plasma and cerebral spinal fluid were collected and assayed by high pressure liquid chromatography for both dyphylline and theophylline.
# [7] = cited from earlier work
# [8] = cited from earlier work; remark: listed apart in the source
# [9] = Winter; cited from earlier work
# [10] = Plasma and cerebral spinal fluid concentrations in an anesthetized horse (Example 4); settings: 0, 30 mins, 1 hour, 2 hours, 3 hours, 4 hours, 24 hours; for Cerebral spinal fluid concentration, theophylline: aminophylline 10 mg/kg + dyphylline 20 mg/kg bolus
# Procedure: as §1
# [11] = test system: mediator-induced broncoconstriction; settings: cited from earlier work
# [12] = in vivo; cited from earlier work
# [13] = cited from earlier work; remark: listed apart in the source
smiles,measurement,setting,value
Cn1c(=O)c2[nH]cnc2n(C)c1=O [aminophylline],visible toxicity,[1],caused some visible toxicity but was not lethal
same,toxicity and death,[2]; aminophylline 40 mg/kg every two hours until death,All the rabbits died following a short period of severe convulsions
same,"Pulse, Horse 1","[3]; 10 min to 240 min as for systolic, Horse 1, time 0: 42",44 beats per minute and 60 beats per minute and 56 beats per minute
same,"Blood pressure Mean, Horse 1","[3]; 10 min to 240 min as for systolic, Horse 1, time 0: 119",106 and 156 and 123
same,"Blood pressure D, Horse 1","[3]; 10 min to 240 min as for systolic, Horse 1, time 0: 156/98",83 and 117 and 90
Cn1c(=O)c2[nH]cnc2n(C)c1=O [theophylline],visible toxicity,[1],one rabbit exhibited obvious signs of theophylline toxicity
same,t1/2,"[1]; aminophylline 40 mg/kg, alone, rabbits 29, 30, 32, mean, 40 mg/kg",6.3 h and 6.861 h and 6.30 h
same,Vd,"[1]; rabbit, in vivo, iv, 40 mg/kg, Vd",0.279 L/kg
same,Vd,"[1]; rabbit, in vivo, iv, 40 mg/kg, Vel (β)",0.562 L/kg
same,half-life,"[1]; rabbit, in vivo, iv, 40 mg/kg, aminophylline 40 mg/kg, alone, rabbits 29, 30, 32, mean",5.73 h
same,concentration at 0.25 h,"[1]; rabbit, in vivo, iv, 40 mg/kg, average blood concentration of theophylline immediately after stopping the infusion, Table II rabbits",~100 µg/mL
same,Vd,"[1]; rabbit, in vivo, iv, 40 mg/kg, average total volume of distribution of theophylline given alone",~0.59 L/kg
same,concentration at 0.25 h,"[1]; rabbit, in vivo, iv, 40 mg/kg, blood concentration of theophylline when the infusion was stopped",110 to 130 µg/mL
same,k el,"[1]; rabbit, in vivo, iv, 40 mg/kg, k10",6.75e-05 s⁻¹
same,average blood concentration of theophylline after first infusion,"[2]; four rabbits, all survived first period, 40 mg/kg",about 100 mcg/ml
same,"volume of distribution (Vd), individual rabbits","[2]; from FIG. 3 data 1 to 2 hours, prior to second infusion, 40 mg/kg",0.32 L/kg and 0.33 L/kg
same,blood theophylline concentration after third infusion (rabbit died),"[2]; one rabbit, 40 mg/kg",about 400 mcg/ml
same,Vd,"[2]; 40 mg/kg, from FIG. 3 data 1 to 2 hours, prior to second infusion, read-out: volume of distribution (Vd), individual rabbits",0.37 L/kg
same,Vd,"[2]; 40 mg/kg, from FIG. 3 data 1 to 2 hours, four rabbits, read-out: volume of distribution (Vd), average",0.35 L/kg
same,"average blood concentration of theophylline, second period (three rabbits died)","[2]; second infusion, 40 mg/kg",about 250 mcg/ml
same,theophylline concentration causing convulsions and death,[2]; theophylline alone,~250 µg/mL
same,Vd,"[4]; in vivo, Vd(B), theophylline followed by dyphylline, b237, b241, b245, b249 rabbits 45-48, b250 mean",0.35 L/kg
same,concentration at 0.25 h,[4],~150 µg/mL
same,Vd,[4]; Vc,0.151 L/kg
same,Vd,[4]; Vd(B),0.403 L/kg
same,half-life,[4]; average half-life of theophylline,6 to 6.5 h
same,Vd,[4]; average total volume of distribution of theophylline given with dyphylline,~0.35 L/kg
same,toxicity,[5]; rabbits,close to lethal
same,penetration into cerebral spinal fluid,[6],penetrate into cerebral spinal fluid
same,effective plasma concentration,[7]; humans,10 to 20 µg/mL
same,"effectiveness and toxicity, dyphylline versus theophylline",[7]; literature,more effective and toxic than dyphylline
same,effects of excessive dose or too rapid administration,[7]; total dose in less than about twenty minutes,blood pressure drop and may develop convulsions which in some instances lead to death
same,tissue distribution,[8]; literature,"penetrate the central nervous system, to infiltrate heart tissue and to distribute to lung tissue"
same,"total volume of distribution, average",[9],about 0.48 L/kg
same,"Cerebral spinal fluid concentration, theophylline",[10],0 µg/mL
same,"Cerebral spinal fluid concentration, theophylline",[10]; 10 mg/kg,5.3 µg/mL
same,"Plasma concentration, theophylline",[10]; aminophylline 10 mg/kg over 20 min + dyphylline 20 mg/kg bolus,0 ng/mL
same,concentration at 40 min,"[3]; horse, in vivo, iv, 10 mg/kg",9 to 10 µg/mL
same,Cmax,"[3]; horse, in vivo, iv, 10 mg/kg, first horse, aminophylline 10 mg/kg over 17 minutes, dyphylline 20 mg/kg bolus at 40 minutes",18 µg/mL
same,Cmax,"[3]; horse, in vivo, iv, 10 mg/kg, second horse, dyphylline 20 mg/kg bolus then aminophylline 10 mg/kg over 20 minutes",35 µg/mL
"Cn1c(=O)c2c(ncn2CC(=O)O)n(C)c1=O [acephylline, 1,3-dimethylxanthinylacetic acid]",efficacy against mediator-induced broncoconstriction,[11]; guinea-pigs,ineffective
same,conversion to theophylline in the body,[8]; literature,not converted to theophylline in the body
same,oral absorption,[12],not absorbed orally
"Cn1c(=O)c2c(ncn2CCO)n(C)c1=O [etophylline, β-hydroxyethylthophylline]","heart rate, individual drug treatment",[5],100 bpm
same,activity relative to theophylline,[11]; based on effective plasma drug concentrations,0.44 times theophylline
same,conversion to theophylline in the body,[8]; in vivo,not converted to theophylline in the body
"CC(O)Cn1cnc2c1c(=O)n(C)c(=O)n2C (stereo not drawn) [proxyphylline, 7-β-hydroxypropyl-theophylline]","heart rate, individual drug treatment",[5],about 96 bpm
same,plasma concentration of proxyphylline,[13]; combined with theophylline and dyphylline (Bracher; Werdermann),less than 9.0 mcg/ml
same,"plasma concentration, each drug","[13]; dyphylline and proxyphylline (Joos et al.), 90 min",about 13 mcg/ml
